# Data from publication PMC9854584, “Synergistic Activity of Pep16, a Promising New Antibacterial Pseudopeptide against Multidrug-Resistant Organisms, in Combination with Colistin against Multidrug-Resistant Escherichia coli, In Vitro and in a Murine Peritonitis Model” (Antibiotics, 2023).
# Read-outs that look alike come from different tables or passages of the source.
# Assays:
# E. coli CFT073-pTOPO [1] = type: in vivo, mice; details: peritonitis due to CFT073-pTOPO; for mean bacterial counts in the spleen / mice that died before the planned time of the sacrifice: single s.c. dose 2 h after inoculation: Pep16 10 mg/kg, colistin 10 mg/kg, cefotaxime 100 mg/kg, or colistin 10 + Pep16 10 mg/kg; for mice that died before the planned time of the sacrifice: planned sacrifice 3, 6, 12 h
# Description: (§1) Animal experiments were performed in accordance with the prevailing regulations and ethical requirements of the Direction of Veterinary Services of Paris. The experimental protocol was approved by the French Ministry of Research and by the Ethics Committee for Animal Experiments (No. APAFIS 22330-2019092415325730). Animals were housed in regulation cages and given free access to food and water. Swiss ICR-strain female mice weighing 25 to 30 g were used.
# We used the lethal murine intraperitoneal infection model previously developed by our group. Mice were inoculated by the intraperitoneal route with 250 μL of a bacterial suspension in porcine mucin 10% (Sigma–Aldrich), corresponding to a final inoculum of approximately 2.5 × 10^7 CFU/mL. The strains tested were CFT073-pTOPO and CFT073-pTOPO-COLR. Two hours after inoculation, at least three mice per strain were sacrificed to determine the pre-therapeutic bacterial loads, referred to as start-of-treatment controls, since all untreated mice died within 12 h (data not shown), preventing the use of end-of-treatment controls. Each treatment group was composed of 9 mice, which were administered a single dose of antibiotic (or of a combination of antibiotics) subcutaneously 2 h after inoculation. The treatment groups were Pep16 10 mg/kg, colistin 10 mg/kg, cefotaxime 100 mg/kg, and Pep16 10 mg/kg + colistin 10 mg/kg. Doses of cefotaxime and colistin were chosen based on previous pharmacokinetic analysis, while the dose of Pep16 was chosen based on the present survival study and pharmacokinetic analysis. In each treatment group, mice were sacrificed by 200 µL of pentobarbital 40% (Euthasol VetVR, Dechra Veterinary Products, Montigny-Le-Bretonneux, France) in a sequential way: 3 mice 3 h after treatment, 3 mice 6 h after treatment, and 3 mice 12 h after treatment. Immediately after death, the spleens were extracted and homogenized. Samples were plated on LB agar. To detect resistant mutants after treatment with colistin, samples were also plated on LB agar containing colistin at 4× MIC. The MICs of colistin-resistant mutants were determined (see above). Colony counts were then determined after 48 h of culture. Endpoints were spontaneous death (before the planned time of the sacrifice), bacterial counts in the spleen, and the emergence of colistin-resistant mutants. The assessment criteria of the murine model were: (i) mortality rate; (ii) bacterial counts in peritoneal fluid (PF) and the spleen; and (iii) the selection of colistin-resistant mutants after 24 h of treatment.
# E. coli CFT073-pTOPO [2] = assay: MIC, broth microdilution (EUCAST); type: cell-based, Escherichia coli; details: at least three experiments
# Description: (§2) The MICs of Pep16 and colistin were determined by the broth microdilution method in accordance with the EUCAST guidelines (www.eucast.org, accessed on 2 September 2022). In order to investigate for the presence of a potential inoculum effect in vitro, MICs were performed with various inoculum sizes, increasing from 10^5 to 10^7 CFU/mL. To explore MIC variations in the presence of albumin, MICs were also determined in Mueller–Hinton broth (MHB) supplemented with 4% human albumin.
# E. coli Af31 = assay: MIC, broth microdilution (EUCAST); type: cell-based, Escherichia coli
# Description: as §2
# [3] = test system: E. coli CFT073-pTOPO-COLR; assay: MIC, broth microdilution (EUCAST); type: cell-based, Escherichia coli
# Description: as §2
# E. coli B119 = assay: MIC, broth microdilution (EUCAST); type: cell-based, Escherichia coli; details: B119, inoculum 10^5 CFU/mL
# Description: as §2
# [4] = test system: E. coli CFT073-pTOPO-COLR; assay: Murine peritoneal infection model; type: in vivo, mice; details: peritonitis due to CFT073-pTOPO-COLR; single s.c. dose: Pep16 10 mg/kg, colistin 10 mg/kg, or colistin 10 + Pep16 10 mg/kg
# Description: as §1
# We used the lethal murine intraperitoneal infection model previously developed by our group. Mice were inoculated by the intraperitoneal route with 250 μL of a bacterial suspension in porcine mucin 10% (Sigma–Aldrich), corresponding to a final inoculum of approximately 2.5 × 10^7 CFU/mL. The strains tested were CFT073-pTOPO and CFT073-pTOPO-COLR. Two hours after inoculation, at least three mice per strain were sacrificed to determine the pre-therapeutic bacterial loads, referred to as start-of-treatment controls, since all untreated mice died within 12 h (data not shown), preventing the use of end-of-treatment controls. Each treatment group was composed of 9 mice, which were administered a single dose of antibiotic (or of a combination of antibiotics) subcutaneously 2 h after inoculation. […] The MICs of colistin-resistant mutants were determined (see above). Colony counts were then determined after 48 h of culture. […]
# [5] = test system: colistin-resistant mutants of E. coli CFT073-pTOPO and B119; assay: MIC for colistin-resistant mutants selected in time-kill curves; type: cell-based, Escherichia coli; details: mutants after 24 h of exposure to colistin alone in time-kill curves
# Description: as §2
# Time–kill curves were performed with Pep16 (4–128 mg/L) and colistin (0.5–8 mg/L) alone or in combination. Exponentially growing E. coli cells were incubated in 10 mL of Mueller–Hinton broth to obtain 10^6 CFU/mL with Pep16 and/or colistin. Viable counts were enumerated by plating 100 μL of appropriate culture dilutions on to lysogeny broth (LB) agar plates after 0, 1, 3, 6, and 24 h of incubation at 37 °C and expressed in log10 CFU/mL. The lower limit of detection was 1 log10 CFU/mL. A bactericidal effect is defined as a 3 log10 decrease in CFU counts compared with the initial inoculum. A synergistic effect is defined as a 2 log10 decrease in CFU counts between the combination and its most-active constituent after 24 h. […] The MICs of colistin-resistant mutants after 24 h of colistin monotherapy were determined (see above). […]
# E. coli CFT073-pTOPO [6] = assay: Flow cytometry study of membrane permeability (Live/Dead BacLight, SYTO9/PI); type: cell-based, Escherichia coli; details: 30 min exposure, 10^6 CFU/mL; colistin 0.25 mg/L (0.25x MIC), Pep16 16 mg/L (0.25x MIC), alone or combined; positive control 90% ethanol; D/M = Q3/(Q1+Q2+Q3)
# Description: Flow cytometry was used to investigate membrane permeability after exposure to antibiotics. Experiments were executed on a Fortessa X-20 flow cytometer (Becton Dickinson, Le Pont de Claix, France) equipped with a 488 nm laser. Exponentially growing E. coli CFT073-pTOPO cells at 10^6 CFU/mL were obtained and incubated with colistin and/or Pep16 at 0.25× MIC during 30 min. […] The samples were centrifuged and reconstituted in phosphate-buffered saline twice. Cells were then stained by using a Live/Dead BacLight kit (Molecular Probes, Invitrogen, Cergy-Pontoise, France) as previously shown [20]. The kit consists of two fluorescent intercalating agents, propidium iodide (PI) and SYTO9, which both stain nucleic acids. The green-fluorescing SYTO9 is able to enter all cells when used alone, whereas the red-fluorescing PI only enters cells with damaged cytoplasmic membranes. The appropriate mixture of the SYTO9 and PI stains enables differentiation between bacteria with intact cytoplasmic membranes and dead bacteria with permeabilized cytoplasmic membranes. Optical filters were set up such that red fluorescence was measured at 635 nm and green fluorescence was measured at 500 nm. The proportion of dead cells (colored in red)/marked cells (colored in red and/or green) was retrieved for each condition. A minimum of 50,000 events per condition were recorded.
Molecule,mean bacterial counts in the spleen (E. coli CFT073-pTOPO [1]),mice that died before the planned time of the sacrifice (E. coli CFT073-pTOPO [1]),"MIC (E. coli CFT073-pTOPO [2]; Escherichia coli, CFT073PTOPO, inoculum 10^5 CFU/mL) [µg/mL]","MIC (E. coli CFT073-pTOPO [2]; Escherichia coli, CFT073PTOPO, inoculum 10^6 CFU/mL) [µg/mL]","MIC (E. coli CFT073-pTOPO [2]; Escherichia coli, CFT073PTOPO, inoculum 10^7 CFU/mL) [µg/mL]","MIC (E. coli Af31; Escherichia coli, AF31) [µg/mL]",MIC ([3]; Escherichia coli) [µg/mL],"MIC (E. coli B119; Escherichia coli, read-out: MIC) [µg/mL]",mean bacterial counts in the spleen [4],mice that died before the planned time of the sacrifice [4],MIC of colistin-resistant mutants [5] [µg/mL],proportion of mice with colistin-resistant mutants (E. coli CFT073-pTOPO [1]; colistin 10 mg/kg alone or with Pep16 10 mg/kg),"mean counts of colistin-resistant mutants in the spleens (E. coli CFT073-pTOPO [1]; colistin 10 mg/kg alone or with Pep16 10 mg/kg, LB agar with colistin at 4x MIC)",percentage of dead cells/marked cells (D/M) (E. coli CFT073-pTOPO [6]) [%],MIC (E. coli CFT073-pTOPO [2]; inoculum 10^5 CFU/mL) [µg/mL],MIC (E. coli CFT073-pTOPO [2]; inoculum 10^6 CFU/mL) [µg/mL],MIC (E. coli CFT073-pTOPO [2]; inoculum 10^7 CFU/mL) [µg/mL],"MIC (E. coli Af31; Af31 (mcr-1 plasmid), inoculum 10^5 CFU/mL) [µg/mL]","MIC ([3]; CFT073-pTOPO-COLR, inoculum 10^5 CFU/mL) [µg/mL]",MIC (E. coli B119) [µg/mL]
"CO/N=C(\C(=O)N[C@@H]1C(=O)N2C(C(=O)O)=C(COC(C)=O)CS[C@H]12)c1csc(N)n1 [Cefotaxime, cefotaxime]",3.6 × 10^6 CFU/g,0/9,0.06,1,8,0.06,0.06,0.06,–,–,–,–,–,–,–,–,–,–,–,–
colistin sulfate,2.7 × 10^8 CFU/g,1/9,–,–,–,–,–,–,4.0 × 10^8 CFU/g,5/9,8 to 16,9/9,1.6 × 10^3 CFU/g,60,1,2,32,8,16,1
